Like-named read-outs stand apart in the source and are kept apart here.
Assays:
[1] = system: Human breast cancer cell line T-47D; experiment: Caspase cascade activation assay (N-(Ac-DEVD)-N'-ethoxycarbonyl-R110 fluorogenic substrate) in T-47D cells; format: cell-based; conditions: for Caspase activity (Ratio) T-47D: 24 h incubation with compound, ratio of net RFU (T=3 h) of test compound to control; for EC50: 24 h incubation, sigmoidal dose-response, read-out: Caspase potency EC50 (nM) T-47D
Description: (§1) Human breast cancer cell lines T-47D and ZR-75-1 were grown according to media component mixtures designated by American Type Culture Collection +10% FCS (Invitrogen Corporation), in a 5% CO2-95% humidity incubator at 37° C. T-47D and ZR-75-1 cells were maintained at a cell density between 30 and 80% confluency at a cell density of 0.1 to 0.6×10^6 cells/ml. Cells were harvested at 600×g and resuspended at 0.65×10^6 cells/mL into appropriate media +10% FCS. An aliquot of 45 μl of cells was added to a well of a 96-well microtiter plate containing 5 μl of a 10% DMSO in RPMI-1640 media solution containing 0.16 to 10 μM of 2-amino-3-cyano-4-(3-bromo-4,5-dimethoxyphenyl)-4H-indolo[7,6-b]pyran (Example 42) or other test compound (0.016 to 1 μM final). An aliquot of 45 μl of cells was added to a well of a 96-well microtiter plate containing 5 μl of a 10% DMSO in RPMI-1640 media solution without test compound as the control sample. The samples were mixed by agitation and then incubated at 37° C. for 24 h in a 5% CO2-95% humidity incubator. After incubation, the samples were removed from the incubator and 50 μl of a solution containing 20 μM of N-(Ac-DEVD)-N′-ethoxycarbonyl-R110 (SEQ ID NO:1) fluorogenic substrate (Cytovia, Inc.; WO99/18856), 20% sucrose (Sigma), 20 mM DTT (Sigma), 200 mM NaCl (Sigma), 40 mM Na PIPES buffer pH 7.2 (Sigma), and 500 μg/ml lysolecithin (Calbiochem) was added. The samples were mixed by agitation and incubated at room temperature. Using a fluorescent plate reader (Model 1420 Wallac Instruments), an initial reading (T=0) was made approximately 1-2 min after addition of the substrate solution, employing excitation at 485 nm and emission at 530 nm, to determine the background fluorescence of the control sample. After the 3 h incubation, the samples were read for fluorescence as above (T=3 h).
(§2) The Relative Fluorescence Unit values (RFU) were used to calculate the sample readings as follows: RFU(T=3h)−Control RFU(T=0)=Net RFU(T=3h)
(§3) The activity of caspase cascade activation was determined by the ratio of the net RFU value for 2-amino-3-cyano-4-(3-bromo-4,5-dimethoxyphenyl)-4H-indolo[7,6-b]pyran or other test compound to that of control samples. The EC50 (nM) was determined by a sigmoidal dose-response calculation (Prism 2.0, GraphPad Software Inc.).

[2] = system: Human breast cancer cell line ZR-75-1; experiment: Caspase cascade activation assay (N-(Ac-DEVD)-N'-ethoxycarbonyl-R110 fluorogenic substrate) in ZR-75-1 cells; format: cell-based; conditions: ZR-75-1 cells; for EC50: 24 h incubation, sigmoidal dose-response, read-out: Caspase potency EC50 (nM) ZR-75-1; for Caspase activity (Ratio) ZR-75-1: 24 h incubation with compound, ratio of net RFU (T=3 h) of test compound to control
Description: as §1, §2, §3

## COc1ccc2c(c1)OC(N)=C(C#N)C2c1cccc(C#N)c1 (stereo not drawn) [Example 5, 2-Amino-3-cyano-7-methoxy-4-(3-cyanophenyl)-4H-chromene]
[1]
  Caspase activity (Ratio) T-47D: 6.9
[1]; Homo sapiens, T47D, 24 h
  EC50: 37 nM
[2]; Homo sapiens, ZR-75-1, 24 h
  EC50: 46 nM
[2]
  Caspase activity (Ratio) ZR-75-1: 7.1

## COc1ccc2c(c1)OC(N)=C(C#N)C2c1cccc(Br)c1 (stereo not drawn) [Example 6, 2-Amino-3-cyano-7-methoxy-4-(3-bromophenyl)-4H-chromene]
[1]
  Caspase activity (Ratio) T-47D: 6.8
[1]; Homo sapiens, T47D, 24 h
  EC50: 54 nM
[2]; Homo sapiens, ZR-75-1, 24 h
  EC50: 30 nM
[2]
  Caspase activity (Ratio) ZR-75-1: 12.8

## CCNc1ccc2c(c1)OC(N)=C(C#N)C2c1cccc(Br)c1 (stereo not drawn) [Example 7, 2-Amino-3-cyano-7-ethylamino-4-(3-bromophenyl)-4H-chromene]
[1]
  Caspase activity (Ratio) T-47D: 5.4
[1]; Homo sapiens, T47D, 24 h
  EC50: 108 nM
[2]; Homo sapiens, ZR-75-1, 24 h
  EC50: 53 nM
[2]
  Caspase activity (Ratio) ZR-75-1: 10.7

## CCNc1ccc2c(c1)OC(N)=C(C#N)C2c1cccc(Cl)c1 (stereo not drawn) [Example 8, 2-Amino-3-cyano-7-ethylamino-4-(3-chlorophenyl)-4H-chromene]
[1]
  Caspase activity (Ratio) T-47D: 8.5
[1]; Homo sapiens, T47D, 24 h
  EC50: 126 nM
[2]; Homo sapiens, ZR-75-1, 24 h
  EC50: 62 nM
[2]
  Caspase activity (Ratio) ZR-75-1: 10.1

## CCNc1ccc2c(c1)OC(N)=C(C#N)C2c1cccc([N+](=O)[O-])c1 (stereo not drawn) [Example 9, 2-Amino-3-cyano-7-ethylamino-4-(3-nitrophenyl)-4H-chromene]
[1]
  Caspase activity (Ratio) T-47D: 7.6
[1]; Homo sapiens, T47D, 24 h
  EC50: 116 nM
[2]; Homo sapiens, ZR-75-1, 24 h
  EC50: 50 nM
[2]
  Caspase activity (Ratio) ZR-75-1: 12.8

## COc1ccc2c(c1)OC(N)=C(C#N)C2c1cccc(Cl)c1 (stereo not drawn) [Example 10, 2-Amino-3-cyano-7-methoxy-4-(3-chlorophenyl)-4H-chromene]
[1]
  Caspase activity (Ratio) T-47D: 6.1
[1]; Homo sapiens, T47D, 24 h
  EC50: 48 nM
[2]; Homo sapiens, ZR-75-1, 24 h
  EC50: 36 nM
[2]
  Caspase activity (Ratio) ZR-75-1: 9.0

## COc1ccc2c(c1)OC(N)=C(C#N)C2c1cccc([N+](=O)[O-])c1 (stereo not drawn) [Example 11, 2-Amino-3-cyano-7-methoxy-4-(3-nitrophenyl)-4H-chromene]
[1]
  Caspase activity (Ratio) T-47D: 4.5
[1]; Homo sapiens, T47D, 24 h
  EC50: 45 nM
[2]; Homo sapiens, ZR-75-1, 24 h
  EC50: 28 nM
[2]
  Caspase activity (Ratio) ZR-75-1: 6.6

## COc1cc(OC)cc(C2C(C#N)=C(N)Oc3cc(OC)ccc32)c1 (stereo not drawn) [Example 12, 2-Amino-3-cyano-7-methoxy-4-(3,5-dimethoxyphenyl)-4H-chromene]
[1]
  Caspase activity (Ratio) T-47D: 6.1
[1]; Homo sapiens, T47D, 24 h
  EC50: 14 nM
[2]; Homo sapiens, ZR-75-1, 24 h
  EC50: 9 nM
[2]
  Caspase activity (Ratio) ZR-75-1: 6.7

## CCNc1ccc2c(c1)OC(N)=C(C#N)C2c1cc(OC)c(OC)c(OC)c1 (stereo not drawn) [Example 13, 2-Amino-3-cyano-7-ethylamino-4-(3,4,5-trimethoxyphenyl)-4H-chromene]
[1]
  Caspase activity (Ratio) T-47D: 4.4
[1]; Homo sapiens, T47D, 24 h
  EC50: 25 nM
[2]; Homo sapiens, ZR-75-1, 24 h
  EC50: 14 nM
[2]
  Caspase activity (Ratio) ZR-75-1: 7.0

## CCNc1ccc2c(c1)OC(N)=C(C#N)C2c1cc(OC)cc(OC)c1 (stereo not drawn) [Example 14, 2-Amino-3-cyano-7-ethylamino-4-(3,5-dimethoxyphenyl)-4H-chromene]
[1]
  Caspase activity (Ratio) T-47D: 7
[1]; Homo sapiens, T47D, 24 h
  EC50: 10 nM
[2]; Homo sapiens, ZR-75-1, 24 h
  EC50: 10 nM
[2]
  Caspase activity (Ratio) ZR-75-1: 7.7

## CCNc1ccc2c(c1)OC(N)=C(C#N)C2c1cccc(OC)c1 (stereo not drawn) [Example 15, 2-Amino-3-cyano-7-ethylamino-4-(3-methoxyphenyl)-4H-chromene]
[1]
  Caspase activity (Ratio) T-47D: 5.9
[1]; Homo sapiens, T47D, 24 h
  EC50: 7 nM
[2]; Homo sapiens, ZR-75-1, 24 h
  EC50: 4 nM
[2]
  Caspase activity (Ratio) ZR-75-1: 6.3

## CCNc1ccc2c(c1)OC(N)=C(C#N)C2c1cccc(C#N)c1 (stereo not drawn) [Example 16, 2-Amino-3-cyano-7-ethylamino-4-(3-cyanophenyl)-4H-chromene]
[1]
  Caspase activity (Ratio) T-47D: 7
[1]; Homo sapiens, T47D, 24 h
  EC50: 11 nM
[2]; Homo sapiens, ZR-75-1, 24 h
  EC50: 6 nM
[2]
  Caspase activity (Ratio) ZR-75-1: 6.7

## COc1ccc2c(c1)OC(N)=C(C#N)C2c1cccnc1 (stereo not drawn) [Example 17, 2-Amino-3-cyano-7-methoxy-4-(3-pyridyl)-4H-chromene]
[1]
  Caspase activity (Ratio) T-47D: 5.9
[1]; Homo sapiens, T47D, 24 h
  EC50: 254 nM
[2]; Homo sapiens, ZR-75-1, 24 h
  EC50: 147 nM
[2]
  Caspase activity (Ratio) ZR-75-1: 8.2

## N#CC1=C(N)OC2C3=CC=NC3=CC=C2C1c1cccnc1 (stereo not drawn) [Example 18, 2-Amino-3-cyano-4-(3-pyridyl)-4H-indolo[4,5-b]pyran]
[1]
  Caspase activity (Ratio) T-47D: 9.0
[1]; Homo sapiens, T47D, 24 h
  EC50: 56 nM
[2]; Homo sapiens, ZR-75-1, 24 h
  EC50: 38 nM
[2]
  Caspase activity (Ratio) ZR-75-1: 8.8

## N#CC1=C(N)Oc2cc(N)ccc2C1c1cccc(Br)c1 (stereo not drawn) [Example 19, 2,7-Diamino-3-cyano-4-(3-bromophenyl)-4H-chromene]
[1]
  Caspase activity (Ratio) T-47D: 5.9
[1]; Homo sapiens, T47D, 24 h
  EC50: 274 nM
[2]; Homo sapiens, ZR-75-1, 24 h
  EC50: 206 nM
[2]
  Caspase activity (Ratio) ZR-75-1: 9.2

## N#CC1=C(N)Oc2cc(N)ccc2C1c1cccc(C#N)c1 (stereo not drawn) [Example 20, 2,7-Diamino-3-cyano-4-(3-cyanophenyl)-4H-chromene]
[1]
  Caspase activity (Ratio) T-47D: 4.0
[1]; Homo sapiens, T47D, 24 h
  EC50: 120 nM
[2]; Homo sapiens, ZR-75-1, 24 h
  EC50: 58 nM
[2]
  Caspase activity (Ratio) ZR-75-1: 5.2

## COc1cccc(C2C(C#N)=C(N)Oc3cc(N)ccc32)c1 (stereo not drawn) [Example 21, 2,7-Diamino-3-cyano-4-(3-methoxyphenyl)-4H-chromene]
[1]
  Caspase activity (Ratio) T-47D: 6.0
[1]; Homo sapiens, T47D, 24 h
  EC50: 697 nM
[2]; Homo sapiens, ZR-75-1, 24 h
  EC50: 562 nM
[2]
  Caspase activity (Ratio) ZR-75-1: 9.2

## N#CC1=C(N)Oc2cc(N)ccc2C1c1cccc(Cl)c1 (stereo not drawn) [Example 22, 2,7-Diamino-3-cyano-4-(3-chlorophenyl)-4H-chromene]
[1]
  Caspase activity (Ratio) T-47D: 5.8
[1]; Homo sapiens, T47D, 24 h
  EC50: 4800 nM
[2]; Homo sapiens, ZR-75-1, 24 h
  EC50: 2480 nM
[2]
  Caspase activity (Ratio) ZR-75-1: 8.0

## Cc1cccc(C2C(C#N)=C(N)Oc3cc(N)ccc32)c1 (stereo not drawn) [Example 23, 2,7-Diamino-3-cyano-4-(3-methylphenyl)-4H-chromene]
[1]
  Caspase activity (Ratio) T-47D: 4.6
[1]; Homo sapiens, T47D, 24 h
  EC50: 146 nM
[2]; Homo sapiens, ZR-75-1, 24 h
  EC50: 102 nM
[2]
  Caspase activity (Ratio) ZR-75-1: 5.2

## N#CC1=C(N)Oc2cc(N)ccc2C1c1cccnc1 (stereo not drawn) [Example 24, 2,7-Diamino-3-cyano-4-(3-pyridyl)-4H-chromene]
[1]
  Caspase activity (Ratio) T-47D: <2
[1]; Homo sapiens, T47D, 24 h
  EC50: > 10000 nM
[2]; Homo sapiens, ZR-75-1, 24 h
  EC50: > 10000 nM
[2]
  Caspase activity (Ratio) ZR-75-1: <2

## N#CC1=C(N)Oc2cc(N)ccc2C1c1cccc([N+](=O)[O-])c1 (stereo not drawn) [Example 25, 2,7-Diamino-3-cyano-4-(3-nitrophenyl)-4H-chromene]
[1]
  Caspase activity (Ratio) T-47D: 6.1
[1]; Homo sapiens, T47D, 24 h
  EC50: 463 nM
[2]; Homo sapiens, ZR-75-1, 24 h
  EC50: 325 nM
[2]
  Caspase activity (Ratio) ZR-75-1: 9.7

## COc1ccc2c(c1)OC(N)=C(C#N)C2c1ccccc1 (stereo not drawn) [Example 26, 2-Amino-3-cyano-7-methoxy-4-phenyl-4H-chromene]
[1]
  Caspase activity (Ratio) T-47D: 3.5
[1]; Homo sapiens, T47D, 24 h
  EC50: 140 nM
[2]; Homo sapiens, ZR-75-1, 24 h
  EC50: 82 nM
[2]
  Caspase activity (Ratio) ZR-75-1: 6.4

## COc1ccc2c(c1)OC(N)=C(C#N)C2C1CC=CCC1 (stereo not drawn) [Example 28, 2-Amino-3-cyano-7-methoxy-4-(1,2,3,6-tetrahydrophenyl)-4H-chromene]
[1]
  Caspase activity (Ratio) T-47D: 3.4
[1]; Homo sapiens, T47D, 24 h
  EC50: 158 nM
[2]; Homo sapiens, ZR-75-1, 24 h
  EC50: 154 nM
[2]
  Caspase activity (Ratio) ZR-75-1: 5.2

## N#CC1=C(N)Oc2ccccc2C1c1ccccc1 (stereo not drawn) [Example 29, 2-Amino-3-cyano-4-phenyl-4-H-chromene]
[1]
  Caspase activity (Ratio) T-47D: <2
  EC50: > 10000 nM
[2]
  Caspase activity (Ratio) ZR-75-1: <2
  EC50: > 10000 nM

## COc1ccc2c(c1)OC(N)=C(C#N)C2c1cncc(C)c1 (stereo not drawn) [Example 30, 2-Amino-3-cyano-7-methoxy-4-(5-methyl-3-pyridyl)-4H-chromene]
[1]
  Caspase activity (Ratio) T-47D: 7.5
[1]; Homo sapiens, T47D, 24 h
  EC50: 24 nM
[2]; Homo sapiens, ZR-75-1, 24 h
  EC50: 14 nM
[2]
  Caspase activity (Ratio) ZR-75-1: 13.2

## CCNc1ccc2c(c1)OC(N)=C(C#N)C2c1cncc(C)c1 (stereo not drawn) [Example 31, 2-Amino-3-cyano-7-ethylamino-4-(5-methyl-3-pyridyl)-4H-chromene]
[1]
  Caspase activity (Ratio) T-47D: 7.9
[1]; Homo sapiens, T47D, 24 h
  EC50: 27 nM
[2]; Homo sapiens, ZR-75-1, 24 h
  EC50: 12 nM
[2]
  Caspase activity (Ratio) ZR-75-1: 11.0

## CCNc1ccc2c(c1)OC(N)=C(C#N)C2c1cncc(Br)c1 (stereo not drawn) [Example 32, 2-Amino-3-cyano-4-(5-bromo-3-pyridyl)-7-ethylamino-4H-chromene]
[1]
  Caspase activity (Ratio) T-47D: 7.2
[1]; Homo sapiens, T47D, 24 h
  EC50: 17 nM
[2]; Homo sapiens, ZR-75-1, 24 h
  EC50: 4 nM
[2]
  Caspase activity (Ratio) ZR-75-1: 9.5
